The record followed here is patent publication US9670261B2 (Sanofi, priority 2012, dated 2017).

Molecules are shown by their SMILES. *1 amine or outer side, *2 acyl side, *3 side chain or, on linkers, in order; H or OH if unused. Where a SMILES comes first, the peptide text is derived from it. Side-chain parts run from the residue outwards. [ ]: non-standard residue; d: D form. The star is where a group is joined. γGlu = O=C(O)[C@H](CCC(=O)[*:2])N[*:1]; Palmitoyl = CCCCCCCCCCCCCCCC(=O)*; Aib = CC(C)(N)C(=O)O

Data set [1] relates to female NMRI-mice. The experiment in a line: Automated assessment of 22-hours feed intake in mice. Format: in vivo. Here is the method:
Female NMRI-mice of a body weight between 20 and 30 g were used. Mice were adapted to housing conditions for at least one week and for at least one day single-caged in the assessment equipment, when basal data were recorded simultaneously. On the study day, test product was administered subcutaneously close to the lights-off phase (12 h lights off) and assessment of feed consumption was directly started afterwards. Assessment included continued monitoring over 22 hours, while data are processed as mean over every 30 min. Repetition of this procedure over several days was possible. Restriction of assessment to 22 hours was for practical reasons to allow for reweighing of animals, refilling of feed and water and drug administration between procedures. Results could be assessed as cumulated data over 22 hours or differentiated to 30 min intervals. […] Statistical analyses were performed with Everstat 6.0 by two-way ANOVA on repeated measures and Dunnett's post-hoc analyses. Differences were considered statistically significant at the p<0.05 level. […] Lights-off phase (dark phase) started 4 hours later. […].

Data set [2] relates to female diet-induced obese (DIO) C57BL/6NCrl mice. In words: Blood glucose and body weight in DIO mice, 18 weeks on high-fat diet (method 1). Format: in vivo. Conditions: for decrease of body weight, relative change from baseline: 4 weeks; for Bodyfat change / Overall weight change: 4-week treatment, mean ± SEM. As for the experimental part: Female C57BL/6NCrl mice were housed in groups in a specific pathogen-free barrier facility on a 12 h light/dark cycle with free access to water and high-fat diet. After 18 weeks on high-fat diet, mice were stratified to treatment groups (n=8), so that each group had similar mean body weight. An aged-matched group with ad libitum access to standard chow was included as standard control group.
(§1) Before the experiment, mice were subcutaneously (s.c.) injected with vehicle solution and weighed for 3 days to acclimate them to the procedures.
The volume of administration was 5 mL/kg. The animals had access to water and their corresponding diet during the experiment, food consumption was determined at all time points of blood sampling. Blood glucose levels were measured at t=0.5 h, t=1 h, t=2 h, t=4 h, t=6 h, t=8 h, and t=24 h (method: d-glucose hexokinase, hemolysate, AU640 Beckman Coulter). Blood sampling was performed by tail incision without anaesthesia.
Body weight was recorded daily. On days 6 and 28, total fat mass was measured by nuclear magnetic resonance (NMR) using a Bruker minispec (Ettlingen, Germany).
(§2) Statistical analyses were performed with Everstat 6.0 by repeated measures two-way ANOVA and Dunnett's post-hoc analyses (glucose profile) and 1-way-ANOVA, followed by Dunnett's post-hoc test (body weight, body fat). Differences versus vehicle-treated DIO control mice were considered statistically significant at the p<0.05 level.
Diet-induced obese female C57BL/6NCrl mice were administered daily in the afternoon, at the end of the light phase (12 h lights on) with 10, 30 and 100 μg/kg of SEQ ID NO: 9 or phosphate buffered solution (vehicle control on standard or high-fat diet) subcutaneously. On day 6 of treatment and at predefined time points, more blood samples were taken to measure blood glucose and generate the blood glucose profile over 24 h.
Female obese C57BL/6NCrl mice were treated for 4 weeks once daily subcutaneously in the afternoon, at the end of the light phase (12 h lights on) with 10, 30 or 100 μg/kg SEQ ID NO: 9 or vehicle. Body weight was recorded daily, and body fat content was determined before the start of treatment and after 4 weeks of treatment.

The test system is the same in data set [3]. The experiment in a line: Body weight in DIO mice, 14 weeks of prefeeding with high-fat diet (method 2). Format: in vivo. Here is the method: Female C57BL/6NCrl mice were housed in groups in a specific pathogen-free barrier facility on a 12 h light/dark cycle with free access to water and high-fat diet. After 14 weeks on high-fat diet, mice were stratified to treatment groups (n=8), so that each group had similar mean body weight.
An aged-matched group with ad libitum access to standard chow and water was included as standard control group.
as §1
Body weight was recorded daily.
as §2
Female obese C57BL/6NCrl mice were treated for 3 weeks once daily subcutaneously in the late afternoon, prior the end of the light phase (12 h lights on) with 10 μg/kg SEQ ID NO: 9 and SEQ ID NO: 21 or vehicle. Body weight was recorded daily.

The nature of data set [4]: Pharmacokinetic testing in mice, s.c. The following applies: mouse, plasma, sc, 1 mg/kg.
Protocol: Mice were dosed 1 mg/kg subcutaneously (s.c.). The mice were sacrified and blood samples were collected after 0.25, 0.5, 1, 2, 4, 8, 16 and 24 hours post application. Plasma samples were analyzed after protein precipitation via liquid chromatography mass spectrometry (LC/MS). PK parameters and half-life were calculated using WinonLin Version 5.2.1 (non-compartment model).

In general, Cmax refers to the peak of the concentration-time curve. As a reminder, the half-life is the time needed for the level to fall by half in the phase considered. A low value points to rapid decline. Regarding `CCCCCCCCCCCCCCCC(=O)N[C@@H](CCC(=O)NCCCC[C@H](NC(=O)[C@H](CCC(N)=O)NC(=O)[C@@H](NC(=O)[C@H](CO)NC(=O)[C@H](CC(C)C)NC(=O)[C@H](CC(=O)O)NC(=O)[C@H](CO)NC(=O)[C@@H](NC(=O)[C@H](Cc1ccccc1)NC(=O)[C@@H](NC(=O)CNC(=O)[C@H](CCC(=O)O)NC(=O)C(C)(C)NC(=O)[C@@H](N)Cc1ccc(O)cc1)[C@@H](C)O)[C@@H](C)O)[C@@H](C)CC)C(=O)N[C@@H](CCC(=O)O)C(=O)N[C@@H](CCCCN)C(=O)N[C@@H](CCCNC(=N)N)C(=O)N[C@@H](C)C(=O)N[C@@H](C)C(=O)NC(C)(C)C(=O)N[C@@H](CCC(=O)O)C(=O)N[C@@H](Cc1ccccc1)C(=O)N[C@H](C(=O)N[C@@H](CCC(=O)O)C(=O)N[C@@H](Cc1c[nH]c2ccccc12)C(=O)N[C@@H](CC(C)C)C(=O)N[C@@H](CCCCN)C(=O)N[C@@H](CC(N)=O)C(=O)N[C@H](C(=O)NCC(=O)N1CCC[C@H]1C(=O)N[C@@H](CO)C(=O)N[C@@H](CO)C(=O)NCC(=O)N[C@@H](C)C(=O)N1CCC[C@H]1C(=O)N1CCC[C@H]1C(=O)N1CCC[C@H]1C(=O)N[C@@H](CO)C(N)=O)[C@@H](C)O)[C@@H](C)CC)C(=O)O` [SEQ ID NO: 9, Y-Aib-E-G-T-F-T-S-D-L-S-I-Q-K(γE-x53)-E-K-R-A-A-Aib-E-F-I-E-W-L-K-N-T-G-P-S-S-G-A-P-P-P-S-NH2] (H-Y[Aib]EGTFTSDLSIQK([γGlu-Palmitoyl])EKRAA[Aib]EFIEWLKNTGPSSGAPPPS-NH2), the “reduction of feed intake after 22 hours” value in data set [1] (3 μg/kg s.c. (not significant, p=0.78)) is reported as 11%; in data set [1] (10 μg/kg s.c.) it was 62%. The “decrease of body weight, relative change from baseline” value in data set [2] (10 μg/kg s.c. once daily) was 13.3-16.4%; in data set [2] (30 μg/kg s.c. once daily), 17.6-20.9%; in data set [2] (100 μg/kg s.c. once daily), 21.7-22.7%; in data set [3] (10 μg/kg s.c. once daily, 3 weeks), “up to 15.1%”. Also, the Bodyfat change in data set [2] (10 μg/kg) is -4.2 ± 0.4 g; in data set [2] (30 μg/kg), -6.1 ± 0.4 g; in data set [2] (100 μg/kg), -6.4 ± 0.5 g. Further, the Overall weight change in data set [2] (10 μg/kg) was -5.0 ± 0.5 g; in data set [2] (30 μg/kg) it was -6.9 ± 0.5 g; in data set [2] (100 μg/kg), -7.3 ± 0.6 g; in data set [3] (10 μg/kg, 3-week treatment, mean ± SEM), -6.2 ± 0.4 g. Moreover, the “basal blood glucose levels compared to DIO control mice” value in data set [2] (day 6 of treatment, 10, 30 and 100 μg/kg s.c. daily) is “dose-dependently decreased”. The same compound registered a Cmax in data set [4] of 5470 ng/mL. In addition, the half-life in data set [4] was 4.1 h.
